Measurements published in patent publication US11891455B2, “Polymorph form of (r)-2-[2-amino-3-(indol-3-yl)propionylamino]-2- methylpropionic acid and uses thereof” (Galimedix Therapeutics Inc., priority 2019, dated 2024).
Peptide text beside a SMILES is read from it.

Tests used:
Assay type in all cases: physicochemical
[1] = Solubility test in water (visual check); details: for solubility in water (in words): visual check
Protocol: To a three necked 1 L flask equipped with stirrer and thermometer, 60.0 g (207.4 mmol) of (R)-2-[2-amino-3-(indol-3-yl)propionylamino]-2-methylpropionic acid, which is as synthesized by methods as described herein, e.g., at Examples 6 and 11, or by the method as previously described in U.S. Patent Application Publication No. 2006/0234947, was added to a mixture of 167.0 mL of water and 21.0 mL of concentrated hydrochloric acid, resulting in the formation of a yellowish brown solution. The pH of the solution was set to 5.6 with 53.0 mL of a 20% NaOH solution at 0-5° C. About 30 minutes later, the crystallization started at 0-5° C. The suspension was stirred overnight at 0-5° C. The suspension was filtered on a pre-chilled funnel. As an in-process control, the solubility of a part of the filter cake in water was checked. […] Form II of (R)-2-[2-Amino-3-(indol-3-yl)propionylamino]-2-methylpropionic acid was isolated and dried at 0-5° C. over P2O5.
To a three necked 6 L flask equipped with overhead stirrer, thermometer, and pH meter, 1189.0 g of wet […] from Step 1 was dissolved in a mixture of 1715.0 mL of water and 250.0 mL of concentrated HCl. The mixture was stirred at 5-10° C. and the pH of the solution was adjusted to 5.6 with 665.0 mL of a 20% NaOH solution maintaining the temperature at 5-10° C. After 30 minutes of stirring, the crystallization began. The resulting suspension was stirred at 0-5° C. overnight. The precipitate was collected by filtration. This collected Form II was suspended in 1.2 L of water and heated to 30-35° C. for two hours. At the beginning, the solid partly dissolved, then precipitated again. […] The suspension was cooled to room temperature (20-25° C.), filtered and washed with 400 mL and 800 mL of water, subsequently then dried at 60-65° C. to constant weight.

[2] = Transition of Form II to Form I / product stability as a function of temperature
Protocol: At a higher temperature (e.g., 40-50° C.) significant degradation of the product is observed. Further, the isolated yield (45%-50% instead of 60%) and the efficiency of the purification are slightly lower (98.9 area %) at −5° C. than at 0-5° C. […] During the filtration step, the thick suspension could be warmed up and partly dissolves Form II of the compound and decreases the yield.
The complete transition from GAL-101 Form II to GAL-101 Form I is detected at room temperature (20-25° C.) within 15 minutes. The transition can start at above 10° C. The transition can be followed by microscope, the large metastable crystals transform to small crystals within a few minutes at ambient temperature (FIGS. 6-14).

[3] = Microscopy study of the transition of Form II to Form I; details: 30-35° C., polarized light microscope
Protocol: Transition of wet Form II to Form I was observed through a MOTIC BA300 microscope (as shown in FIGS. 6-10) under polarized light. The transition from wet Form II to Form I proceeded rapidly. The large Form II crystals transformed to small crystals at 30-35° C. within 2 minutes. The crystals of Form II are large plates. The observed crystal form explains the observed thixotropic property of the suspension of Form II. Form I consists of uniform rounded crystals.

[4] = Transition of Form II to Form I followed by X-ray powder diffraction
Protocol: X-ray powder diffraction (XRPD) patterns were obtained in a Philips model PW 3710 based PW 1050 Bragg-Brentano parafocusing goniometer using CuKa radiation (l=0.15418 nm), graphite monochromator and proportional counter. The XRD scans were digitally recorded in the […] of 3-35deg with a step size of 0.04deg.
Form II was measured at 20-25° C. (long dashed line), then heated at 30-35 for 15 minutes (solid line), then another 60 minutes (dotted line) (FIG. 2). Form I was also measured (short dashed line). According to the measurements, Form II is highly crystalline and strongly oriented (it forms large plates).
The transition of Form II (dark grey line) to Form I (black line) was complete at 50-60° C. within 30 minutes (FIG. 3). The reference diffractogram of Form I is shown in grey.

solubility in water (in words) ([1]; listed as Form I) | temperature above which the transition Form II to Form I can start [2] | speed of transformation to Form I (in words) ([2]; above 30° C.) | time to complete transition from Form II to Form I ([2]; room temperature (20-25° C.)) [min] | water needed to dissolve (water solubility) ([1]; room temperature) | solubility in water (in words) [1] | solubility in water (in words) ([1]; listed as form II) | time for large Form II crystals to transform to small crystals (wet Form II to Form I) [3] [min] | time to complete transition of Form II to Form I (XRPD) ([4]; 50-60° C.) [min] | conversion of Form II to Form I in dry state (XRPD) ([4]; dry state, 30-35° C.) | SMILES
almost insoluble in water | – | – | – | – | – | – | – | – | – | CC(C)(NC(=O)[C@H](N)Cc1c[nH]c2ccccc12)C(=O)O [GAL-101 Form I, (R)-2-[2-amino-3-(indol-3-yl)propionylamino]-2-methylpropionic acid] (HELM PEPTIDE1{[dW].[Aib]}$$$$V2.0)
– | above 10 °C | very rapidly | ≤ 15 | about 4 volumes of water | high water solubility | Immediately dissolving | ≤ 2 | ≤ 30 | converts gradually to Form I | CC(C)(NC(=O)[C@H](N)Cc1c[nH]c2ccccc12)C(=O)O [GAL-101 Form II, (R)-2-[2-amino-3-(indol-3-yl)propionylamino]-2-methylpropionic acid] (HELM PEPTIDE1{[dW].[Aib]}$$$$V2.0)
